This is an account of results in US6355474B1, “Immunostimulatory and metastasis inhibiting fermented vegetal material” (priority 1997, dated 2002).

For data set [1] the following is noted: literature; cited from earlier work.
Data set [2] in a line: Stability (storage) tests via 2.6-DMBQ / 2-MBQ concentration by HPLC. It counts as physicochemical. On the procedure:
The decomposition of the material according to the invention was checked via the chanqes in concentration of the 2.6-dimethoxy-p-benzoquinone. We conducted storage experiments at three different temperatures (room temperature 20° C. 40° C. and 60° C.) The lyophilisate—about 1 g—as stored in test-tubes which were sealed air-tight. The duration of the experiments was 8 weeks, every week three parallel measurements were conducted on samples taken from all three series kept at different temperatures. The quantitative analysis of benzoquinone derivatives was conducted by HPLC.

A further data set has as its system malignant tumour cells. Particulars: literature; cited from earlier work.

On to `COC1=CC(=O)C=CC1=O` [2-MBQ, 2-methoxy-p-benzoquinone], for which the “fungicidal and bacteriostatic effect” value in data set [1] was “fungicidal and bacteriostatic effect”. In addition, the “decomposition of 2-methoxy-p-benzoquinone in the stored material” value was “remained unchanged” in data set [2] (room temperature) and “could not be shown after one week of storage” in data set [2] (samples kept at 40 or 60° C.).
As for `COC1=CC(=O)C=C(OC)C1=O` [2.6-DMBQ, 2.6-dimethoxy-p-benzoquinone], the “fungicidal and bacteriostatic effect” value in data set [1] is “fungicidal and bacteriostatic effect”. In addition, the “cytotoxicity for malignant tumour cells” value with malignant tumour cells is “cytotoxic”.
